Earlier results, collected in patent publication US20240050388A1 (BioLink Life Sciences, Inc., priority 2022, published 2024).

Settings: oral

Question: For `CC(=O)[O-].CC(=O)[O-].[Ca+2]` [calcium acetate], which “In vivo phosphate binding” value is on record?
Answer: The value was “essentially quantitative”.
